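Exposure lasted 48 hours, with cells grown in 96-well plates and compounds tested at five concentrations. GI50 = concentration required for 50% inhibition of growth.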 Activity calls are given as the source filed them. No stated cut-off is given here; in the data, active = GI50 up to about 1.1 µM and inactive = higher.
Assays:
Assay in all cases: NCI anticancer screen, dose series, 48 h
[1] = system: OVCAR-4
[2] = system: A549
[3] = system: CAKI-1
[4] = system: HOP-62
[5] = system: SK-MEL-5
[6] = system: SF-295
[7] = system: SR
[8] = system: NCI-H522
[9] = system: KM12
[10] = system: PC-3
[11] = system: UACC-62
[12] = system: HOP-92
[13] = system: Malme-3M
[14] = system: T47D
[15] = system: RPMI-8226
[16] = system: 786-0
[17] = system: MDA-MB-231
[18] = system: LOX IMVI
[19] = system: IGROV-1
[20] = system: UACC-257

Measured: GI50

O=C(/C=C/c1ccc(-c2ccccc2)cc1)NCc1ccc(C(=O)NCCc2c[nH]c3ccccc23)cc1
inactive: [1] 14.8 µM | [2] 19.4 µM | [3] 16.3 µM | [4] 9.14 µM | [5] 26 µM | [6] 11.1 µM | [7] 21 µM | [8] 21.3 µM | [9] 31 µM | [10] 23.5 µM | [11] 29 µM | [12] 20.1 µM | [13] 33.4 µM | [14] 22 µM | [15] 60.8 µM | [16] 11.1 µM | [17] 14.6 µM | [18] 48.9 µM | [19] 11.4 µM | [20] 67.3 µM

Nc1nc(Cl)cc(NC2(CO)CCC2)n1
inactive: [1] > 100 µM | [2] > 100 µM | [3] 89.5 µM | [4] > 100 µM | [5] > 100 µM | [6] > 100 µM | [7] > 100 µM | [8] > 100 µM | [9] > 100 µM | [10] > 100 µM | [11] > 100 µM | [12] > 100 µM | [13] > 100 µM | [14] > 100 µM | [15] > 100 µM | [16] > 100 µM | [17] > 100 µM | [18] > 100 µM | [19] > 100 µM | [20] > 100 µM

Cc1cc(NS(=O)(=O)c2ccc(Nc3c4ccccc4nc4ccc(C(=O)Nc5ccc(S(N)(=O)=O)cc5)cc34)cc2)no1
inactive: [1] > 100 µM | [2] > 100 µM | [3] > 100 µM | [4] > 100 µM | [5] > 100 µM | [6] > 100 µM | [7] > 100 µM | [8] > 100 µM | [9] 69 µM | [10] > 100 µM | [11] > 100 µM | [12] > 100 µM | [13] > 100 µM | [14] 84.3 µM | [15] > 100 µM | [16] > 100 µM | [17] > 100 µM | [18] > 100 µM | [19] > 100 µM | [20] > 100 µM

COc1c2c(nc3ccccc13)-c1cc(C(CC(=O)OC(C)(C)C)C(=O)OC(C)C)c(CO)c(=O)n1C2 (stereo not given)
inactive: [1] > 70.5 µM | [2] 52.8 µM | [3] 4.22 µM | [4] 24.9 µM | [5] 43.5 µM | [6] 29.2 µM | [7] 5.62 µM | [8] 37.6 µM | [9] > 100 µM | [10] > 86.1 µM | [11] 17.8 µM | [12] 40 µM | [13] > 100 µM | [14] 22.1 µM | [15] 21.3 µM | [16] 30.5 µM | [17] > 100 µM | [18] 32.4 µM | [19] 47.4 µM | [20] > 100 µM

CCCCCOc1ccc(NC2=C(Cl)C(=O)c3c(O)ccc(O)c3C2=O)cc1
inactive: [1] 5.12 µM | [2] > 10 µM | [3] > 10 µM | [4] 5.85 µM | [5] 5.43 µM | [6] > 10 µM | [7] 2.36 µM | [8] 2.55 µM | [9] 4.14 µM | [10] 5.25 µM | [11] 5.42 µM | [12] 6.85 µM | [13] 2.49 µM | [14] 2.76 µM | [15] 2.43 µM | [16] 1.6 µM | [17] 3.35 µM | [18] 1.79 µM | [19] > 10 µM | [20] 6.15 µM

Nc1ncn([C@H]2C[C@H](O)[C@@H](CO)O2)c(=O)n1 [DECITABINE]
inactive: [1] 104 µM | [2] 21.4 µM | [3] 219 µM | [4] 111 µM | [5] 74.6 µM | [6] 102 µM | [7] 2.67 µM | [8] 36.7 µM | [9] 72.6 µM | [10] 9.57 µM | [11] 83.8 µM | [12] 175 µM | [13] 127 µM | [14] 10.4 µM | [15] 54.7 µM | [16] 9.42 µM | [17] 17.8 µM | [18] 99.5 µM | [19] 102 µM | [20] 34.9 µM

CC(=O)NNc1nc(C)c(C(/C=C/c2ccc([N+](=O)[O-])cc2)=N/NC(N)=O)s1
inactive: [1] > 100 µM | [2] > 100 µM | [3] > 100 µM | [4] > 100 µM | [5] > 100 µM | [6] > 100 µM | [7] > 100 µM | [8] > 100 µM | [9] > 100 µM | [10] > 100 µM | [11] > 100 µM | [12] > 100 µM | [13] > 100 µM | [14] > 100 µM | [15] > 100 µM | [16] > 100 µM | [17] > 100 µM | [18] > 100 µM | [19] 44.8 µM | [20] > 100 µM

CO/C(=C/C(=O)C(Cl)(Cl)Cl)CC/C(=C\C(=O)C(Cl)(Cl)Cl)OC
inactive: [1] 19.1 µM | [2] 47.4 µM | [3] 24.9 µM | [4] 20.8 µM | [5] 34.2 µM | [6] 36.3 µM | [7] 18.6 µM | [8] 20.1 µM | [9] 27.7 µM | [10] 27.4 µM | [11] 22 µM | [12] 18.4 µM | [13] 23 µM | [14] 25.4 µM | [15] 22.3 µM | [16] 22.3 µM | [17] 42.2 µM | [18] 19.6 µM | [19] 16.3 µM | [20] 19.2 µM
